The record followed here is article PMC11638965, “Leveraging Dual-Ligase Recruitment to Enhance Protein Degradation via a Heterotrivalent Proteolysis Targeting Chimera” (Journal of the American Chemical Society, 2024).

What all share (experiment): Western blot dose-response degradation in homozygous HiBiT-BromoTag-BRD4 HEK293 cells
Test [1] has as its system BromoTag-BRD4 (BRD4^Long). It counts as cell-based, human. The conditions noted are these: for pDC50 BRD4Long: homozygous BromoTag-BRD4 HEK293 cells (Table S8). Here is the method:
(§1) Cell Culture HEK293 cells were obtained from ATCC. HEK293 was cultured in DMEM supplemented with 10% (v/v) fetal bovine serum (FBS), 1% […] and 1% (v/v) penicillin/streptomycin (pen/strep) at 37 °C, 5% CO2, and 95% humidity.
(§2) To perform the single gRNA Cas9 CRISPR KI of BromoTag into BRD4 in HEK293. HEK293 cells were plated at a density of 5 × 10^5 cells into individual wells of a six-well plate in 1 mL of DMEM and left overnight to adhere to the plate. The cells were subsequently transfected the following day using GeneJuice lipofectamine reagent simultaneously with a custom donor vector pMK-RQ containing 500bp BRD4 homology arms on either side of an eGFP-IRES-HiBiT-BromoTag and two individual pBABED vector harboring U6-sgRNA and puromycin expression cassettes containing two BRD4 targeting gRNA sequences: […] and […]. The construction of these plasmids was performed by Thomas Macartney of the MRC-PPU CRISPR services. The following day cells were washed with PBS before fresh DMEM media was applied cells were left to recover in DMEM for a further 4 days. Cells were subsequently FACS sorted for GFP expression and expanded from single cells. HEK293 clones were validated for eGFP-IRES-HiBIT-BromoTag-BRD4 integration via WB, junction PCR and sequencing.
(§3) Dose–response degradation assay 97 of was performed on the genotype verified eGFP-IRES-HiBIT-BromoTag-BRD4 homozygous HEK293 cell lines. The cells were plated at a density of 5 × 10^5 cells per well of a six well plate a day prior to initiation of the experiment. 97 was dissolved into a 10 mM concentrated stock solution in DMSO from which 97 was further diluted to a working concentration range of 10 μM to 10 pM in DMEM and was subsequently added to cells. Additional controls including, vehicle, AGB1 (1 μM) and cis-AGB1 (1 μM) were similarly added to cells alongside 97 treatments. Cells were left to incubate with compound for 4 h at 37 °C, 5% CO2, and 95% humidity. Cells were then subsequently washed twice with PBS before being harvested in RIPA buffer supplemented with protease inhibitor cocktail and Benzonase Nuclease before being store at −20 °C.
Total protein quantity was determined using the BCA protein assay. Protein concentration was determined using the BCA assay. Samples were then prepared in LDS buffer and subsequently loaded onto NuPAGE 4–12% Bis-Tris Midi gels, followed by the transfer of the proteins onto nitrocellulose membranes. The membranes were blocked for 1 h prior to incubation with the primary antibodies using 5% Milk TBST. […] All Western blots were analyzed for band intensities using Image Lab (Bio-Rad). The data extracted from these blots were then plotted and analyzed using Prism (v. 10.2.2, GraphPad). […]

Test [2] has as its target T1, BRD2 (Homo sapiens, UniProt P25440).
T1 construct: HiBiT, is appended to the N-terminus of endogenous BRD2, BRD3, and BRD4; endogenous in cells
It counts as cell-based. Here is the method: as §1, §2, §3
(§4) Total protein quantity was determined using the BCA protein assay. Protein concentration was determined using the BCA assay. Samples were then prepared in LDS buffer and subsequently loaded onto NuPAGE 4–12% Bis-Tris Midi gels, followed by the transfer of the proteins onto nitrocellulose membranes. The membranes were blocked for 1 h prior to incubation with the primary antibodies using 5% Milk TBST. Membranes were incubated at 4 °C in either BRD4(Ab128874), BRD3(Ab50818) or BRD2(Ab139690) primary antibody overnight. Following overnight incubation, the membranes were incubated with complementary IRDye 800CW secondary antibodies and a hFAB Rhodamine Anti-Tubulin Primary Antibody (loading control) for 1 h and then imaged with a Bio-Rad imager. All Western blots were analyzed for band intensities using Image Lab (Bio-Rad). The data extracted from these blots were then plotted and analyzed using Prism (v. 10.2.2, GraphPad). All Western blotting figures were developed in Adobe Illustrator.

For test [3], the target named is T2, BRD3 (Homo sapiens, UniProt Q15059).
T2 construct: HiBiT, is appended to the N-terminus of endogenous BRD2, BRD3, and BRD4; endogenous in cells
It counts as cell-based. On the procedure: as §1, §2, §3, §4

Test [4] concerns the target T3, BromoTag-BRD4 (BRD4^Short) (Homo sapiens, UniProt O60885, L387A).
T3 construct: homozygous endogenous HiBiT-BromoTag-BRD4 HEK293 cell line; endogenous in cells; host or cells: HEK293, homozygous CRISPR knock-in eGFP-IRES-HiBiT-BromoTag-BRD4
It counts as cell-based. Here is the method: as §1, §2, §3, §4

In test [5] the target is CRBN (Homo sapiens, UniProt Q96SW2). Type of test: cell-based. Further details: Western blot data for BET, CRBN and VHL protein levels; endogenous in cells; host or cells: HEK293 (ATCC). On the procedure:
as §1, §2
Dose–response degradation assay 97 of was performed on the genotype verified eGFP-IRES-HiBIT-BromoTag-BRD4 homozygous HEK293 cell lines. The cells were plated at a density of 5 × 10^5 cells per well of a six well plate a day prior to initiation of the experiment. 97 was dissolved into a 10 mM concentrated stock solution in DMSO from which 97 was further diluted to a working concentration range of 10 μM to 10 pM in DMEM and was subsequently added to cells. […]
Total protein quantity was determined using the BCA protein assay. Protein concentration was determined using the BCA assay. […] All Western blots were analyzed for band intensities using Image Lab (Bio-Rad). The data extracted from these blots were then plotted and analyzed using Prism (v. 10.2.2, GraphPad). […]

Where [6] appears, read: HiBiT-BromoTag-BRD4 HEK293, 4 hours (Figure 12).
Setting [7] is: homozygous BromoTag-BRD4 HEK293 cells (Table S8).
Where [8] appears, read: HiBiT-BromoTag-BRD4 HEK293, 4 hours, n = 1 (Figure 12).

T2 sequence (Q15059 whole entry): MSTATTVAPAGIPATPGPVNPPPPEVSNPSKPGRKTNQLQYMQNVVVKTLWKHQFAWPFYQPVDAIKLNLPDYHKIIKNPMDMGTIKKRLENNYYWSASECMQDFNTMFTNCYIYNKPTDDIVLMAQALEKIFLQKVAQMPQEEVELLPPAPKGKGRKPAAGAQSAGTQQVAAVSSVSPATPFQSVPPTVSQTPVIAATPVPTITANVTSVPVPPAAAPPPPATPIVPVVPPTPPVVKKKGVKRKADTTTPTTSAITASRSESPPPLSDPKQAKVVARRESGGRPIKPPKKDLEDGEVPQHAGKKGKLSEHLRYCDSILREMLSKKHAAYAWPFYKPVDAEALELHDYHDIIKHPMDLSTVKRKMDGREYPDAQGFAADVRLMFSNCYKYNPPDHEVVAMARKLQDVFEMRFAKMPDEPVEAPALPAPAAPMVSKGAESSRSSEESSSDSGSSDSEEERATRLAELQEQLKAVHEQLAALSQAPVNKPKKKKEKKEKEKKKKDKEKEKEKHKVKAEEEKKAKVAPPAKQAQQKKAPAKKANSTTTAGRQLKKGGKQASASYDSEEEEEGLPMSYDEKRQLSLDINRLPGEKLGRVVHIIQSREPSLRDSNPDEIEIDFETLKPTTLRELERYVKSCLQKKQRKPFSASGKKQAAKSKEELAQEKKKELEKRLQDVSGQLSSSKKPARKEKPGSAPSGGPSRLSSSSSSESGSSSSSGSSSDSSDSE
Chain of CRBN (Q96SW2 whole entry): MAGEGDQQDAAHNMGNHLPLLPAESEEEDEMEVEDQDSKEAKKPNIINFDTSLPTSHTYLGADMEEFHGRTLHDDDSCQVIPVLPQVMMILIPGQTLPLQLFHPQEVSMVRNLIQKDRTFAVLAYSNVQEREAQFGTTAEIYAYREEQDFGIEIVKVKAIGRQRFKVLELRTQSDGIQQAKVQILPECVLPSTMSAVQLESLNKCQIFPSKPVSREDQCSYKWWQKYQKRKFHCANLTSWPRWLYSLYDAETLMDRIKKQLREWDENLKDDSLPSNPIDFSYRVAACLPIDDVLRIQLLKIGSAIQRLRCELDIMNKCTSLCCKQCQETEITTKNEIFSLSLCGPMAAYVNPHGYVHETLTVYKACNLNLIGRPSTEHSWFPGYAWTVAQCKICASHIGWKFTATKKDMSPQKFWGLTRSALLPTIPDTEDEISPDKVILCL
T1 sequence (P25440 whole entry): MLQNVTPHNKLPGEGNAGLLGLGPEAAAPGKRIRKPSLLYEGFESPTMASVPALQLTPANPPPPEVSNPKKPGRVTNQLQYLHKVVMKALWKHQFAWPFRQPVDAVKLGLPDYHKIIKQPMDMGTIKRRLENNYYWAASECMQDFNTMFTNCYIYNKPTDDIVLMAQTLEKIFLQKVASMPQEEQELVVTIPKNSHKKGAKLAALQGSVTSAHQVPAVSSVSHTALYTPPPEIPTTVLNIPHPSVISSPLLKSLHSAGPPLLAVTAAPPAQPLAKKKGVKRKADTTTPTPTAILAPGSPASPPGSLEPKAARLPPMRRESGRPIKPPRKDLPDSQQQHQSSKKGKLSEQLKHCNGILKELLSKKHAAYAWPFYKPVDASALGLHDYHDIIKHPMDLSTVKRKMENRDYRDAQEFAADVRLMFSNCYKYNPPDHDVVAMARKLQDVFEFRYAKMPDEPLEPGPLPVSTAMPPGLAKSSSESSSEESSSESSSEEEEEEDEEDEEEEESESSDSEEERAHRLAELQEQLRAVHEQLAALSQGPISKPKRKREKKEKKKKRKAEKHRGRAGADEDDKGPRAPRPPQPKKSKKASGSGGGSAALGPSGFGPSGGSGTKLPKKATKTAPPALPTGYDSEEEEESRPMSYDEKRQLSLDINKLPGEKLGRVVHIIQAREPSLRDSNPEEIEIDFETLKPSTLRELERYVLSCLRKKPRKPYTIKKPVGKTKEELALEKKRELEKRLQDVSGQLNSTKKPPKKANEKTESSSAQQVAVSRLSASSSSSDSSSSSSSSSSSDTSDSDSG

The DC50 is the concentration at which degradation of the target reaches its halfway point. By Dmax is commonly meant the greatest extent of degradation seen. A high value points to a fuller loss of target. For the molecule `CC[C@@H](C(=O)OCCOCCOCCOCC(C)(COCCOCCOCCNc1cc2c(cc1F)C(=O)N(C1CCC(=O)NC1=O)C2=O)COCC(=O)N[C@H](C(=O)N1C[C@H](O)C[C@H]1C(=O)N[C@@H](C)c1ccc(-c2scnc2C)cc1)C(C)(C)C)[C@@H]1N=C(c2ccc(Cl)cc2)c2c(sc(C)c2C)-n2c(C)nnc21` (mixture of isomers) [AB3145 (97), (17S)-11-((2-(2-(2-((2-(2,6-dioxopiperidin-3-yl)-6-fluoro-1,3-dioxoisoindolin-5-yl)amino)ethoxy)ethoxy)ethoxy)methyl)-17-((2S,4R)-4-hydroxy-2-(((S)-1-(4-(4-methylthiazol-5-yl)phenyl)ethyl)carbamoyl)pyrrolidine-1-carbonyl)-11,18,18-trimethyl-15-oxo-3,6,9,13-tetraoxa-16-azanonadecyl (2R)-2-((S)-4-(4-chlorophenyl)-2,3,9-trimethyl-6H-thieno[3,2-f][1,2,4]triazolo[4,3-a][1,4]diazepin-6-yl)butanoate], the half-maximal degradation concentration (DC50) stood at 0.12 nM in test [1] (setting [6]); 770 nM in test [2] (setting [6]); 33 nM in test [3] (setting [6]); 0.14 nM in test [4] (setting [6]); 2.1 nM in test [5] (setting [8]). Besides, in test [1] (setting [6]), the “Dmax BRD4^Long” value is 85%. Also, the “pDC50 BRD4Long” value in test [1] was found to be 9.9 ± 0.6. In addition, in test [2] (DC50 ratio), the “selectivity window of BromoTag-BRD4 degradation over BRD2” value came out at 6000 fold. In addition, the greatest degradation seen (Dmax) in test [2] (setting [6]) turned out to be 50%; in test [2] (setting [7]) it was 56%; in test [3] (setting [6]), 79%; in test [4] (setting [6]) it was 86%; in test [5] (setting [8]), 77%. Further, the “selectivity window of BromoTag-BRD4 degradation over BRD3” value in test [3] (DC50 ratio) was 250 fold. Also, the “pDC50 BRD3” value in test [3] (setting [7]) was 7.5 ± 0.4. Moreover, the “pDC50 BRD4Short” value in test [4] (setting [7]) was found to be 9.9 ± 0.1. For the same molecule, the “fold more potent degradation of CRBN than 27” value in test [5] (DC50 2.1 nM vs 75 nM) is reported as approximately 35 fold.
In the case of `CC[C@@H](C(=O)OCCOCCOCCOCC(=O)N[C@H](C(=O)N1C[C@H](O)C[C@H]1C(=O)NCc1ccc(-c2scnc2C)cc1)C(C)(C)C)[C@@H]1N=C(c2ccc(Cl)cc2)c2c(sc(C)c2C)-n2c(C)nnc21` [AGB1, reference compound], the “pDC50 BRD4Long” value in test [1] came out at 8.0 ± 0.2. In test [4] (setting [7]), the “Dmax % BRD4Short” value is recorded as 11% and the “pDC50 BRD4Short” value is reported as 8.6 ± 0.1.
